The text below walks through data of US20210008161A1, “METHODS AND COMPOSITIONS FOR IMPROVED HOMOLOGY DIRECTED REPAIR” (CRISPR THERAPEUTICS AG, priority 2019, published 2021).

The subject of one test is HEK293 T cells. Nature of the test: TIDE analysis of DSB repair at CFTR gene locus. The format is cell-based, human. Here is the method: The effect of Nu7441 treatment on HDR was also evaluated at the CFTR gene locus in HEK293 T cells. To do so cells were electroporated with RNP comprising Cas9 and a gRNA targeting the CFTR gene locus (SEQ ID NO: 18; sgRNA target sequence identified by SEQ ID NO: 19). 2×10^5 cells were edited with 1 μM Cas9 and 1.5 μM gRNA. The cells were transfected with a ssODN donor (SEQ ID NO: 42). Cells were edited with 100 μM ssODN. The ssODN contains homology arms spanning both sides of the DSB induced by the Cas9-guide and is designed to include 3 additional base pairs (GCA) into the CFTR gene to aid detection of HDR. Cells were also treated with 5 μM Nu7441. Gene correction was assessed by TIDE analysis. TIDE analysis uses a pair of PCR reactions and standard capillary sequencing runs to identify mutations induced at the site of a DSB (see e.g., Brinkman (2014) Nucleic Acids Res 42:e168). The type of mutation induced at the DSB was indicative of the pathway used to repair the DSB. Formation of an indel comprising either an insertion or a deletion of bases was considered due to NHEJ repair; a deletion of 2-3 base pairs was considered due to MMEJ repair; while an insertion of 3 base pairs was considered due to HDR repair. Shown in FIGS. 4A-4B are mutations introduced at the DSB for cells treated with Nu7441 (FIG. 4B) compared to a DMSO negative control (FIG. 4A). […] This reduction in NHEJ repair in the presence of Nu7441 was evaluated with an additional ssODN donor (SEQ ID NO: 41).

Test [1] concerns CD34-expressing LT-HSPCs derived from human patients with sickle cell disease. Nature of the test: Hemoglobin expression (HbF, HbA, HbS) by HPLC. Format: cell-based. Here is the method: Hemoglobin expressed by edited cells that were differentiated to erythrocytes was assessed. Hemoglobin A (HbA) is composed of 2 alpha-globin and 2 beta-globin units and is the dominant hemoglobin in adult humans. In human carriers of the HBB E6V mutation, a high proportion of total hemoglobin is hemoglobin S (HbS), which is composed of 2 alpha-globin units and 2 beta-globin units with E6V.
(§1) Briefly, on day 18 post-editing, 1×10^6 cells were harvested, centrifuged, and washed with PBS. The cells were prepared for HPLC analysis. Hemoglobin variants were quantified in cell samples using reverse-phase HPLC chromatography and gradient elution. […] Thus, high levels of HDR achieved with i53 contribute to normalization of hemoglobin expression products.

The next test has as its system CD34-expressing LT-HSPCs. Nature of the test: Indel formation at HBB locus by TIDE analysis. The format is cell-based, human. Here is the method: Editing efficiency at the HBB locus was evaluated by measuring indel formation by TIDE analysis. […] This group had 1.7-fold reduction in INDEL frequency relative to cells treated with RNP+AAV,
The next test deals with patient-derived PBMCs. The experiment in a line: Hemoglobin expression by HPLC in edited patient-derived PBMCs. The format is cell-based, human. The following applies: FIG. 36. Here is the method: as §1
Hemoglobin expression was measured by HPLC analysis for edited PBMCs as described above.

For test [2], the system named is wild-type CD34-expressing LT-HSPCs. The experiment in a line: HDR and INDEL frequency at HBB locus with AAV.323 donor by NGS. The format is cell-based, human. From the text: The AAV-encoded homology donor used for correction is referred to as “AAV.323” and is identified by sequence in Table 8.
Test [3] concerns CD34-expressing LT-HSPCs derived from human patients with sickle cell disease. The experiment in a line: Erythrocyte functionality: cell-surface markers and enucleation by flow cytometry. The format is cell-based. The following applies: day 18 post editing. Here is the method: The ability of edited cells to differentiate to functional erythrocytes was assessed by determining expression of erythrocyte-associated cell surface markers and enucleation using flow cytometry on day 18 post editing.
Briefly, 4×10^5 cells were obtained, and half were stained for erythrocyte cell-surface markers and half were used for detection of enucleation. For staining cell-surface markers, the cells were incubated in PBS containing 1% human serum albumin (PBS-A) and an antibody cocktail of anti-CD233 (BRIC6-Band3)-FITC, anti-CD71-PE, anti-CD235a(GlyA)-PE/Cy7, and anti-CD49d (a4)-VioBlue. For detection of enucleation, 2 drops of NucRed nuclear staining reagent was added to 1 mL PBS-A, and 100 μL was added to plated cells. Following incubation, both cell samples were labeled with Sytox Blue solution (1:1000 dilution in PBS-A) for live/dead analysis. Samples were then assessed by flow cytometry.

In another test the test system is hTERT RPE-1 cells. The experiment in a line: HDR insertion of AAV-delivered GFP donor into AAVS1 locus (GFP fluorescence). The format is cell-based, human. The following applies: AAV (DJ serotype) GFP donor and mRNA encoding i53, over AAV alone, FIG. 7. As for the experimental part:
RPE1 cells were lipofected with RNP comprised of Cas9 protein and gRNA targeting the AAVS1 locus (target sequence shown in SEQ ID NO: 3; spacer sequence shown in SEQ ID NO: 4). Cells were edited with 1 μg Cas9 and 1 μg gRNA. Cells were infected with AAV containing homology donor DNA encoding GFP (DJ serotype) as well as mRNA encoding i53 (mRNA ORF shown in SEQ ID NO: 69). […] HDR efficiency was determined by measuring the level of GFP fluorescence in the cells following gene-editing.

Test [4] relates to human LT-HSPCs administered to cKit mice. Nature of the test: Indel formation at HBB locus in mouse bone marrow by TIDE analysis. Format: in vivo. The following applies: 16 weeks post engraftment. Here is the method:
NHEJ editing of the HBB locus was also evaluated in mouse bone marrow collected at 16 weeks post engraftment. Indel formation at the site of Cas9/gRNA cutting was evaluated by TIDE analysis in bone marrow samples and compared to indel formation of LT-HSPCs prior to administration.
NHEJ editing of the HBB locus was also evaluated in mouse bone marrow collected at 16 weeks post engraftment. Indel formation at the site of Cas9/gRNA cutting was evaluated by TIDE analysis in bone marrow samples and compared to indel formation of LT-HSPCs prior to administration. Regardless of the method used to edit the LT-HSPCs, indel formation was similar at 16 weeks post-engraftment to the level present prior to administration (FIG. 27).

Where [5] appears, read: either ssODN donor (SEQ ID NO: 41 or 42), FIG. 5.
Setting [6] is: day 18 post-editing, compared to mock EP control cells, FIG. 34A.
The mark [7] stands for this setting: compared to mock EP control cells.

Take `O=c1cc(N2CCOCC2)oc2c(-c3cccc4c3sc3ccccc34)cccc12` [Nu7441]: the “HDR repair (+3 base pair insertion) at the DSB” value in the test on HEK293 T cells (5 μM Nu7441, ssODN SEQ ID NO: 42, FIG. 4) was “much higher levels”. In addition, in the test on HEK293 T cells (5 μM Nu7441, ssODN SEQ ID NO: 42, vs DMSO negative control, FIG. 4), the “indel formation (NHEJ repair)” value is listed as “dramatically reduced”. In the test on HEK293 T cells (setting [5]), the HDR repair entry was “increase” and the “indel formation due to NHEJ repair” value is “decreased levels”.

“i53: polypeptide inhibitor of 53BP1 (SEQ ID NO: 70), introduced as an mRNA-encoded protein (ORF SEQ ID NO: 69)”: in test [1] (setting [6]), the HbA levels result is listed as “increased” and the HbS levels entry is “dramatically reduced”. In addition, the “decrease in HbS levels” value in test [1] (relative to mock EP control cells, FIG. 34B) worked out at 90%. For the same molecule, the “risk of indel formation within the target gene locus” value in the test on CD34-expressing LT-HSPCs (CD34+ HSCs contacted with 53BP1 polypeptide inhibitor, summary statement) is on record as “less than 30%”. Moreover, in the test on CD34-expressing LT-HSPCs (RNP+AAV in the presence of i53, FIG. 11), the “level of indel formation” value is reported as “lowest”. For the same molecule, in the test on patient-derived PBMCs (setting [7]), the “expression of HbA” value is listed as “increased” and the “expression of HbS” value is on record as “significant reduction”. Moreover, in the test with patient-derived PBMCs (edited in the presence of i53), the “ratio of HbS to HbA, PBMCs vs CD34-expressing LT-HSPCs” value is given as “comparable”. Moreover, the “fold increase in HDR efficiency for incorporation of the AAV.323 gene-edit” value in test [2] (1 μg i53 mRNA, day 2 post-editing, compared to R02+AAV.323 only, FIG. 30A) is “approximately 1.5 fold”. Moreover, the “frequency of INDELs at the R02 cut site” value in test [2] (i53 vs R02+AAV.323 only, combination vs i53 only, FIG. 30B) was “decreased”. Also, the “cell population having enucleation” value in test [3] (comparable to mock EP control cells) is above 30%. The “cell population CD71−GlyA+ erythrocytes” value in test [3] (similar to mock EP control cells) is given as above 30%. In the test with hTERT RPE-1 cells, the HDR efficiency result is listed as “increase”. The “level of indel formation in bone marrow” value in test [4] (Example 5, FIG. 20) is on record as “lowest”. The “level of indel formation in bone marrow” value in test [4] (Example 7, FIG. 27) is listed as “lowest”.
